The source of these data is paper PMC12266748, “A Xanthine Derivative With Novel Heat Shock Protein 90‐Alpha Inhibitory and Senolytic Properties” (Aging Cell, 2025).

Series [1] addresses T1, HSP90α (Homo sapiens, UniProt P07900). The experiment in a line: Cellular thermal shift assay (CETSA) on cellular lysates, HSP90α. The note with it: 46°C, compound 0.5 mM.
Protocol: Cellular Thermal Shift Assay (CETSA). […] Briefly, the cellular extract was lysed in RIPA buffer (10 mM Tris-HCl pH 7.4, 250 mM NaCl, 1% NP40/IGEPAL, 1% DOC, 0.01% SDS, 0.01% Glycerol, supplemented with protease/phosphatase inhibitor, PI/PhI mix and 2 mM DTT) and protein concentration was determined by a BCA kit (Pierce, Life Technologies, TFS, Waltham, MA, USA). Samples were homogenized by 3 cycles of freeze-thawing using liquid nitrogen and centrifuged at 13000 rpm at 4 °C for 30 min to separate the soluble fraction from the debris.
Following the supplier's recommendations, samples were loaded into the proper cartridge (12- 230 kDa Wes/Jess Separation Modules, ProteinSimple, Biotechne, Minneapolis, MN, USA). HSP90α (1:50, MsMAb, Abcam), HSP90β (1:50, RbMAb, Abcam), GRP94 (1:50, RbMAb, Abcam), TRAP1 (1:50, MsMAb, Abcam), α-Tubulin (1:500, MsMAb, Abcam), and β-Actin (1:500, RbMAb, Abcam) were used as primary antibodies. Secondary antibodies were Anti-Mouse Secondary HRP and Anti-Rabbit Secondary HRP (ProteinSimple, Biotechne, Minneapolis, MN, USA).
Series [2] can be described thus: Bidirectional permeability in Caco-2 cells. It counts as in vitro ADME. The note with it: 5 µM, HBSS pH 7.4, 2 hours. The method, then:
(§1) APHAD S.r.l (Buccinasco, MI, Italy) performed all evaluations. Detailed protocols are reported in the extended methods section.
Permeability in Caco-2 cells. To evaluate the bidirectional permeability of the 2 compounds, Caco-2 cells (ECACC, ReadyCells, Barcellona, Spain), considered a reference cellular line for in vitro preclinical evaluation of oral dosage products, were used. These cells are cultured in monolayers, which become differentiated polarized epithelial cells after 21 days, expressing tight junctions, microvilli, intracellular metabolic enzymes, and transmembrane transporters such as BCRP, MDR1, and MRP2 (an artificial model equivalent to the intestinal epithelium). […] At the end of the experiment, the integrity of the cellular junction was measured by incubating the Lucifer yellow (LY) at the apical side (at the concentration of 0.02 mg/mL in MEM medium) and with MEM medium in the basolateral compartment for 1 hour at 37°C. At the end of incubation, fluorescence was read on a fluorimeter at λ 430-538nm. Samples were analyzed on a UPLC Acquity (Waters) coupled with an API 3200 Triple Quadrupole AB Sciex. […] The apparent permeability (Papp), the efflux ratio (ER), and the Recovery (R) were calculated to allow for estimation of metabolism and non-specific binding. […] Data are expressed as mean of n=2 (± SD).
Background: Caco-2 monolayers are a common model of the intestinal barrier.

For series [3], the target named is T1, HSP90α. Briefly: HSP90 N-Terminal Domain Assay Kit, fluorescence polarization competition with FITC-Geldanamycin. Details: purchased BPS Bioscience 50293. The format is binding. The note with it: dose-response 1 pM to 10 μM, n = 3, extrapolated with GraphPad Prism; read-out: HSP90α inhibition IC50. The method, then: HSP90‐directed inhibitory activity was assessed employing the HSP90 N‐Terminal Domain Assay Kit (BPS Bioscience) according to the manufacturer's instructions. The fluorescence intensity was measured with a multiplate reader (Victor Nivo‐Perkin Elmer). The IC50 was calculated by analyzing the data using GraphPad Prism 10 software.
HSP90 inhibition activity assay. […] […] […] Data are the percentage of residual enzyme activity relative to the solvent (DMSO). The IC50s were calculated by analyzing the data using GraphPad Prism 10 software.

Series [4] is described as follows: Phase I stability in mouse liver microsomes. It counts as in vitro ADME. The note with it: 1 µM, 0.5 mg/mL microsomes. The method, then: as §1
Phase I stability in human and mouse liver microsomes. The metabolic stability of K4 and K5 was evaluated after incubation with mouse and human liver microsomes. Briefly, the 2 compounds were dissolved in DMSO and pre-incubated, at the final concentration of 1µM, for 10 min at 37°C in potassium phosphate buffer 50 mM, pH 7.4, 3 mM MgCl2, with mouse and human liver microsomes (Sigma) at the final concentration of 0.5 mg/mL. After the pre-incubation period, reactions were started by adding the cofactors mixture (NADP, Glc6P, Glc6P-DH in 2% Sodium bicarbonate); samples were taken at time 0, 10, 20, 30, and 60 min, and added to ACN with Verapamil 0.1 µM as Internal Standard (IS) to stop the reaction. After centrifugation, the supernatants were analyzed using LC-MS/MS. A control sample without cofactors was added to check the stability of test compounds in the matrix after 60 min. 7-Ethoxycoumarin (7-EC) and propranolol were added as positive reference standards. Samples were analyzed on Acquity UPLC (Waters) coupled with an API 3200 Triple Quadrupole ABSciex. […] The percent of the area of the test compound remaining at the various incubation times was calculated based on the area of the compound at time 0 min. […]
For orientation: Microsomes from liver hold many membrane-bound enzymes, among them those of drug oxidation.

Series [5] can be described thus: Thermodynamic solubility, shake flask method. The note with it: PBS buffer; PBS pH 7.4, 24 h at 37°C. The format is physicochemical. The method, then: as §1
Thermodynamic solubility. The shake flask method measured the thermodynamic solubility of K4 and K5 in PBS buffers at pH 7.4. A saturated solution of the compounds was prepared by incubating the 2 compounds in PBS buffer for 24 h at 37°C under agitation. At the end of the incubation, samples were centrifuged, two aliquots were diluted in acetonitrile (CAN), and each sample was then injected into LC-MS/MS (ESI interface) and quantified on a calibration curve prepared by sequential dilution in ACN. Samples were analyzed on UPLC Acquity (Waters) interfaced with API 3200 (AB Sciex) Triple Quadrupole Mass spectrometer. For K4, a Synergy Polar C18 column was used (50x2, 1mm 5µm, Phenomenex, Temp 35°C, Inj volume 10 µL, mobile phase A: water +0.1% FA, and phase B: ACN 0.1% FA, gradient: 5%-98% B, flow: 0.3 mL/min). For K5, a Gemini NX C18 column was used (50x2, 1mm 5µm, Phenomenex, Temp 35°C, Inj volume 10 µL, mobile phase A: 5mM ammonium formate +0.1% FA, and phase B: MeOH +5%, gradient: 5%-98% B, flow: 0.3 mL/min).

In general, IC50 refers to the concentration needed to halve the response being measured. As a reminder, the thermodynamic solubility is solubility found after equilibrating the solid with the medium. As to `CC(C)(C)S(=O)(=O)C/C(N)=N/OS(=O)(=O)c1ccc(F)cc1F` [Compound K4, (Z)-N'-[(2,4-difluorobenzenesulfonyl)oxy]-2-(2-methylpropane-2-sulfonyl)ethanimidamide], in series [1], the “interaction / stabilization of HSP90α in CETSA” value was “potent and selective interaction”. In series [2], the Caco-2 bidirectional permeability result was “no K4 signal was detected”. For the same compound, the half-maximal inhibitory concentration (IC50) in series [3] is 155 nM. Also, the “clearance in mouse microsomes” value in series [4] is recorded as “medium clearance”. For the same compound, the solubility (thermodynamic) at 24 h in series [5] was around 400 µg/mL.

On to `Cc1ccccc1-n1c(=O)n(Cc2ccccc2)c(=O)c2[nH]cnc21` [Compound K5, 1-benzyl-3-(2-methylphenyl)-7H-purine-2,6-dione], for which the “interaction / stabilization of HSP90α in CETSA” value in series [1] is “potent and selective interaction”. Also, the Caco-2 bidirectional permeability result in series [2] is “excellent permeability in both directions”. In addition, the IC50 in series [3] is 111 nM. Besides, the “clearance in mouse microsomes” value in series [4] is on record as “medium clearance”. In series [5], the solubility (thermodynamic) at 24 h was around 200 µg/mL.
